We go through 21 compounds from patent US7741337B2, “Azonafide derivatives, methods for their production and pharmaceutical compositions therefrom” (Unibioscreen S.A., priority 2005, dated 2010).

Where a name gives a salt, the structure may show the parent alone.

The test system of one test is human cancer cell lines Hs683, U-373MG, HCT-15, LoVo, A549 and MCF-7. The experiment in a line: MTT test, effect on overall cell growth (mean of six cell lines, examples 3 to 26). It counts as cell-based. The settings on record: mean of six cell lines Hs683, U-373MG, A549, MCF-7, 72 hours incubation, range of molar concentrations resulting in 50% inhibition of overall tumor cells growth. The protocol:
(§1) MTT tests were performed in order to rapidly, i.e. within 5 days, measure the effect of azonafide derivatives of this invention on the overall cell growth. The test measures the number of metabolically active living cells that are able to transform the yellow product 3-(4,5-dimethylthiazol-2-yl)-2,5-diphenyl tetrazolium bromide (herein referred as MTT) into the blue product formazan dye by mitochondrial reduction. The amount of formazan obtained at the end of the experiment, measured by means of a spectrophotometer, is directly proportional to the number of living cells. Optical density determination thus enables a quantitative measurement of the effect of the investigated compounds as compared to the control condition (untreated cells) and/or to other reference compounds.
(§2) Height human cancer cell lines described in table 1 were used in the following MTT tests. These cell lines cover six histological cancer types, being prostate, glioma, pancreas, colon, lung and breast cancers. Cells were allowed to grow in 96-well micro-wells with a flat bottom with an amount of 100 μl of cell suspension per well with 1,000 to 4,000 cells/well depending on the cell type used. Each cell line was seeded in a well known MEM 5% serum culture medium.
(§3) The detailed experimental procedure was as following: after a 24-hour period of incubation at 37° C., the culture medium was replaced by 100 μl of fresh medium in which the compound to be tested was dissolved at the following molar concentrations: 10^−9 M, 5.10^−9 M, 10^−8 M, 5.10^−8 M, 10^−7 M, 5.10^−7 M, 10^−6 M, 5.10^−6 M and 10^−5 M. Each experiment was repeated 6 times.
(§4) After 72 hours of incubation at 37° C. with (experimental conditions) or without (control condition) the compound to be tested, the medium was replaced by 100 μl MTT dissolved in RPMI at a concentration of 1 mg/ml. The micro-wells were subsequently incubated during 3 hours at 37° C. and centrifuged at 400 g during 10 minutes. MTT was removed and formazan crystals formed were dissolved in 100 μl DMSO. The micro-wells were shaken for 5 minutes and read on a spectrophotometer at wavelengths of 570 nm (maximum formazan absorbance) and 630 nm (back-ground noise).
(§5) For each experimental condition, the mean optical density was calculated, as well as the percentage of remaining living cells in comparison with the control.
(§6) IC50 values for compounds of examples 3 to 26 were obtained on cell lines Hs683, U-373MG, HCT-15, LoVo, A549 and MCF-7 described in Table 1. IC50 values for compounds from examples 27 to 45 were obtained on cell lines PC3, U-373MG, BxPC3, LoVo, A549 and MCF-7 described in Table 1.
A general note: Formazan colour is commonly taken as a measure of viable cells.
The IC50 is the concentration that inhibits the measured activity by half. Compound `CN(C)CCN1C(=O)c2cccc3cc4c(N)cccc4c(c23)C1=O` [Example 4, 8-amino-2-[2-(dimethylamino)ethyl]-1H-dibenzo[de,h]isoquinoline-1,3(2H)-dione, reference compound] had an IC50 of 1 to 5 µM. The same measure, in the same setting: in the case of `CN(C)CCN1C(=O)c2cccc3cc4c(NC(=O)NC(=O)c5ccccc5)cccc4c(c23)C1=O` [Example 16, N-({2-[2-(dimethylamino)ethyl]-1,3-dioxo-2,3-dihydro-1H-dibenzo[de,h]isoquinolin-8-yl}carbamoyl)benzamide hydrochloride] it was 1 to 5 µM; in that of `CN(C)CCN1C(=O)c2cccc3cc4cccc(NC(=O)Oc5ccccc5)c4c(c23)C1=O` [Example 18, phenyl {2-[2-(dimethylamino)ethyl]-1,3-dioxo-2,3-dihydro-1H-dibenzo[de,h]isoquinolin-11-yl}carbamate], above 10 µM. In turn, `CCCCCCCCCC(=O)CC(=O)Nc1cccc2cc3cccc4c3c(c12)C(=O)N(CCN(C)C)C4=O` [Example 20, N-{2-[2-(dimethylamino)ethyl]-1,3-dioxo-2,3-dihydro-1H-dibenzo[de,h]isoquinolin-11-yl}-3-oxododecanamide] yielded a concentration for half-maximal inhibition (IC50) above 10 µM.

Compound `CN(C)CCN1C(=O)c2cccc3cc4cccc(NC(=O)CC(=O)CCc5ccccc5)c4c(c23)C1=O` [Example 22, N-{2-[2-(dimethylamino)ethyl]-1,3-dioxo-2,3-dihydro-1H-dibenzo[de,h]isoquinolin-11-yl}-3-oxo-5-phenylpentanamide] yielded a half-maximal inhibitory concentration (IC50) above 10 µM. Compound `CCOC(=O)CCC(=O)CC(=O)Nc1cccc2cc3cccc4c3c(c12)C(=O)N(CCN(C)C)C4=O` [Example 23, ethyl 6-({2-[2-(dimethylamino)ethyl]-1,3-dioxo-2,3-dihydro-1H-dibenzo[de,h]isoquinolin-11-yl}amino)-4,6-dioxohexanoate] returned an IC50 above 10 µM.

In a further test the test system is human cancer cell lines PC3, U-373MG, BxPC3, LoVo, A549 and MCF-7. The experiment in a line: MTT test, effect on overall cell growth (mean of six cell lines, examples 27 to 45). To be noted: mean of six cell lines PC3, U-373MG, A549, MCF-7, 72 hours incubation, range of molar concentrations resulting in 50% inhibition of overall tumor cells growth. It counts as cell-based. The protocol:
as §1, §2, §3, §4, §5, §6
`CN(C)CCN1C(=O)c2cccc3cc4cccc(NC(=O)OCCCCCl)c4c(c23)C1=O` [Example 28, 4-chlorobutyl {2-[2-(dimethylamino)ethyl]-1,3-dioxo-2,3-dihydro-1H-dibenzo[de,h]isoquinolin-11-yl}carbamate] yielded an IC50 above 10 µM. Same read-out and setting: in the case of `CN(C)CCN1C(=O)c2cccc3cc4cccc(NC(=S)Nc5ccc(Br)cc5)c4c(c23)C1=O` [Example 30, 1-{2-[2-(dimethylamino)ethyl]-1,3-dioxo-2,3-dihydro-1H-dibenzo[de,h]isoquinolin-11-yl}-3-[4-bromophenyl]thiourea] it was above 10 µM; in that of `COCCNC(=S)Nc1cccc2cc3cccc4c3c(c12)C(=O)N(CCN(C)C)C4=O` [Example 32, 1-{2-[2-(dimethylamino)ethyl]-1,3-dioxo-2,3-dihydro-1H-dibenzo[de,h]isoquinolin-11-yl}-3-[2-methoxyethyl]thiourea], 5 to 10 µM; in that of `CC(C)c1ccc(NC(=S)Nc2cccc3cc4cccc5c4c(c23)C(=O)N(CCN(C)C)C5=O)cc1` [Example 33, 1-{2-[2-(dimethylamino)ethyl]-1,3-dioxo-2,3-dihydro-1H-dibenzo[de,h]isoquinolin-11-yl}-3-[4-isopropylphenyl]thiourea], above 10 µM. Same read-out and setting: in the case of `COc1ccc(NC(=S)Nc2cccc3cc4cccc5c4c(c23)C(=O)N(CCN(C)C)C5=O)cc1` [Example 34, 1-{2-[2-(dimethylamino)ethyl]-1,3-dioxo-2,3-dihydro-1H-dibenzo[de,h]isoquinolin-11-yl}-3-[4-methoxyphenyl]thiourea] it was above 10 µM; in that of `CCNC(=S)Nc1cccc2cc3cccc4c3c(c12)C(=O)N(CCN(C)C)C4=O` [Example 35, 1-{2-[2-(dimethylamino)ethyl]-1,3-dioxo-2,3-dihydro-1H-dibenzo[de,h]isoquinolin-11-yl}-3-[ethyl]thiourea], above 10 µM.

As to `C=CCNC(=S)Nc1cccc2cc3cccc4c3c(c12)C(=O)N(CCN(C)C)C4=O` [Example 36, 1-{2-[2-(dimethylamino)ethyl]-1,3-dioxo-2,3-dihydro-1H-dibenzo[de,h]isoquinolin-11-yl}-3-[allyl]thiourea], the 50% inhibitory concentration (IC50) was above 10 µM.

Compound `COc1ccccc1NC(=S)Nc1cccc2cc3cccc4c3c(c12)C(=O)N(CCN(C)C)C4=O` [Example 37, 1-{2-[2-(dimethylamino)ethyl]-1,3-dioxo-2,3-dihydro-1H-dibenzo[de,h]isoquinolin-11-yl}-3-[2-methoxyphenyl]thiourea] showed an IC50 above 10 µM. With `CN(C)CCN1C(=O)c2cccc3cc4cccc(NC(=S)Nc5cccnc5)c4c(c23)C1=O` [Example 38, 1-{2-[2-(dimethylamino)ethyl]-1,3-dioxo-2,3-dihydro-1H-dibenzo[de,h]isoquinolin-11-yl}-3-[3-pyridyl]thiourea], the IC50 was above 10 µM. Same read-out and setting: in the case of `CN(C)CCN1C(=O)c2cccc3cc4cccc(NC(=S)Nc5ccc(Br)cc5OC(F)(F)F)c4c(c23)C1=O` [Example 39, 1-{2-[2-(dimethylamino)ethyl]-1,3-dioxo-2,3-dihydro-1H-dibenzo[de,h]isoquinolin-11-yl}-3-[2-trifluoromethoxy4-bromophenyl]thiourea] it was above 10 µM; in that of `CN(C)CCN1C(=O)c2cccc3cc4cccc(NC(=S)NCc5ccco5)c4c(c23)C1=O` [Example 40, 1-{2-[2-(dimethylamino)ethyl]-1,3-dioxo-2,3-dihydro-1H-dibenzo[de,h]isoquinolin-11-yl}-3-[2-furylmethyl]thiourea], 1 to 5 µM; in that of `CN(C)CCN1C(=O)c2cccc3cc4cccc(NC(=S)Nc5ccc(C(F)(F)F)cc5)c4c(c23)C1=O` [Example 41, 1-{2-[2-(dimethylamino)ethyl]-1,3-dioxo-2,3-dihydro-1H-dibenzo[de,h]isoquinolin-11-yl}-3-[4-trifluoromethylphenyl]thiourea], 1 to 5 µM. Still for that read-out and setting: in the case of `CN(C)CCN1C(=O)c2cccc3cc4cccc(NC(=S)Nc5ccc6nsnc6c5)c4c(c23)C1=O` [Example 43, 1-(2,1,3-Benzothiadiazol-5-yl)-3-{2-[2-(dimethylamino)ethyl]-1,3-dioxo-2,3-dihydro-1H-dibenzo[de,h]isoquinolin-11-yl}thiourea] it was 1 to 5 µM; in that of `CN(C)CCN1C(=O)c2cccc3cc4cccc(NC(=S)Nc5ccccc5OC(F)(F)F)c4c(c23)C1=O` [Example 45, 1-{2-[2-(dimethylamino)ethyl]-1,3-dioxo-2,3-dihydro-1H-dibenzo[de,h]isoquinolin-11-yl}-3-[2-(trifluoromethoxy)phenyl]thiourea], above 10 µM.

Another test deals with A549 (Lung cancer) cells. Kind of test: Effect on cell migration, A549. Type of test: cell-based. To be noted: Homo sapiens, 22 hours on the 25% of most motile cells, at 10^−8 M, p value in same cell, read-out: Maximum effects (cell migration). The protocol:
(§7) Cells of different cancer lines, i.e. U-373 MG (Glioma cancer), PC3 (prostate cancer and A549 (Lung cancer) were seeded on culture flask 48 hours before the migration experiment. On the test day, cells were treated with or without the azonafide derivatives mentioned in table 3 in closed Falcon dishes containing a buffered medium at a controlled temperature (37.0±0.1° C.) for 12 or 22 hours, as noted in the right column of table 3. The azonafide derivatives were used at three non-cytotoxic concentrations (10^−6 M, 10^−7, 10^−8 M). Migration of the cells was observed by means of a CCD-camera mounted on a phase-contrast microscope. Statistical analysis of the migration, with the non-parametric Mann-Whitney test, was established for 25% and 50% of the most motile cells and for the entire cell population.
Consider `C=CCOC(=O)Nc1cccc2cc3cccc4c3c(c12)C(=O)N(CCN(C)C)C4=O` [Example 26, allyl {2-[2-(dimethylamino)ethyl]-1,3-dioxo-2,3-dihydro-1H-dibenzo[de,h]isoquinolin-11-yl}carbamate], for which the Emax at 0.01 µM was -29%.

Another test concerns U-373 MG, PC-3 and/or A549 cancer cells. The experiment in a line: Effect on cell migration, summary of table 3. Type of test: cell-based, human. The settings on record: U-373 MG, PC-3 and/or A549 cancer cells at the non-cytotoxic concentrations of this study. The protocol: as §7
`C=CCOC(=O)Nc1cccc2cc3cccc4c3c(c12)C(=O)N(CCN(C)C)C4=O` [Example 26, allyl {2-[2-(dimethylamino)ethyl]-1,3-dioxo-2,3-dihydro-1H-dibenzo[de,h]isoquinolin-11-yl}carbamate]: the “migration level of cancer cells” value is “induced a decrease in the migration level”.

The test is the same for the next values; noted with them: comparison drawn from table 3.
In the case of `C=CCOC(=O)Nc1cccc2cc3cccc4c3c(c12)C(=O)N(CCN(C)C)C4=O` [Example 26, allyl {2-[2-(dimethylamino)ethyl]-1,3-dioxo-2,3-dihydro-1H-dibenzo[de,h]isoquinolin-11-yl}carbamate], the “cell migration activity compared with the closest compounds known in the art” value is “significantly greater cell migration activity than the closest compounds known in the art, or similar cell migration activity at significantly lower concentrations”.
